Earlier results as cited in PMC4484741 (Nuclear medicine and biology, 2011).
Like-named read-outs stand apart in the source and are kept apart here.

Tests used:
pancreatic BCM = details: rats, PET
GLP-1 receptor = details: read-out: Kd, affinity to GLP-1 receptor

COc1cc2c(cc1OCCC[18F])CCN1C[C@@H](CC(C)C)[C@H](O)C[C@H]21 [[^18F]FP-DTBZ]
Time within which liver and pancreas uptake rose to a plateau (pancreatic BCM): ≤ 15 min

Exendin (9-39): truncated version of exendin-4, antagonist of GLP-1 receptor
Kd (GLP-1 receptor): ~3 nM

COc1cc2c(cc1O[11CH3])CCN1CC(CC(C)C)C(O)CC21 (centres unmarked) [[^11C]DTBZ]
Time within which liver and pancreas uptake rose to a plateau (pancreatic BCM): ≤ 15 min

GLP-1: endogenous ligand of the GLP-1 receptor
half-life in vivo (fast degradation by dipeptidyl peptidase-4): 1 to 2 min

Exendin-4: 39-amino acid peptide hormone from Gila monster saliva, agonist of GLP-1 receptor
half-life in vivo: about 2.4 h
